Measured values as given in PubChem BioAssay AID330 (DTP/NCI, 2004).
“And” between values parts separate entries of the source, which are not always exact repeats. Equal values may be shown once. Inconclusive results and toxic doses are left out. The calls were made as follows: active = survival T/C of 150% or more; inactive = T/C below 125% in these data.

Test system: P388 leukemia ip, CD2F1 mice, survival T/C
Experiment: NCI In Vivo Anticancer Drug Screen. Data for tumor model P388 Leukemia (intraperitoneal) in CD2F1 (CDF1) mice
Details: endpoint: median survival time, higher = longer survival
Method in brief: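 Mice carrying the transplanted tumor received test compound or vehicle. Survival was recorded in each group, and the value is the treated-group measurement divided by that of the vehicle-treated control group.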

[1] = dose: 50.0 mg/kg/injection, schedule: Q01DX001 (ip), vehicle: Klucel (hydroxypropylcellulose) (HPC)
[2] = dose: 100.0 mg/kg/injection, schedule: Q01DX001 (ip), vehicle: Klucel (hydroxypropylcellulose) (HPC)
[3] = dose: 200.0 mg/kg/injection, schedule: Q01DX001 (ip), vehicle: Klucel (hydroxypropylcellulose) (HPC)
[4] = dose: 400.0 mg/kg/injection, schedule: Q01DX001 (ip), vehicle: Klucel (hydroxypropylcellulose) (HPC)
[5] = dose: 50.0 mg/kg/injection, schedule: Q01DX009 (ip), vehicle: saline with Tween-80
[6] = dose: 100.0 mg/kg/injection, schedule: Q01DX009 (ip), vehicle: saline with Tween-80
[7] = dose: 100.0 mg/kg/injection, schedule: Q01DX009 (ip), vehicle: saline
[8] = dose: 200.0 mg/kg/injection, schedule: Q01DX009 (ip), vehicle: saline with Tween-80
[9] = dose: 50.0 mg/kg/injection, schedule: Q01DX005 (ip), vehicle: saline with Tween-80
[10] = dose: 100.0 mg/kg/injection, schedule: Q01DX005 (ip), vehicle: saline with Tween-80
[11] = dose: 200.0 mg/kg/injection, schedule: Q01DX005 (ip), vehicle: saline with Tween-80
[12] = dose: 25.0 mg/kg/injection, schedule: Q01DX009 (ip), vehicle: saline with Tween-80
[13] = dose: 25.0 mg/kg/injection, schedule: Q01DX009 (ip), vehicle: saline
[14] = dose: 50.0 mg/kg/injection, schedule: Q01DX009 (ip), vehicle: Klucel (hydroxypropylcellulose) (HPC)
[15] = dose: 50.0 mg/kg/injection, schedule: Q01DX009 (ip), vehicle: saline
[16] = dose: 100.0 mg/kg/injection, schedule: Q01DX009 (ip), vehicle: Klucel (hydroxypropylcellulose) (HPC)
[17] = dose: 200.0 mg/kg/injection, schedule: Q01DX009 (ip), vehicle: Klucel (hydroxypropylcellulose) (HPC)
[18] = dose: 60.0 mg/kg/injection, schedule: Q01DX005 (ip), vehicle: saline with Tween-80
[19] = dose: 120.0 mg/kg/injection, schedule: Q01DX005 (ip), vehicle: saline with Tween-80
[20] = dose: 240.0 mg/kg/injection, schedule: Q01DX005 (ip), vehicle: saline with Tween-80

Measured: T/C

O=C(CCc1cc2[nH]c1c(-c1ccccc1)c1nc(c(-c3ccccc3)c3ccc([nH]3)c(-c3ccccc3)c3nc(c2-c2ccccc2)C=C3)C=C1)OCCCc1cccnc1
inactive: [1] 100 % of control | [2] 105 % of control | [3] 100 % of control | [4] 91 % of control

CCCCCCCCSP(SCCCCCCCC)SCCCCCCCC
inactive: [5] 113 % of control | [6] 106 % of control | [7] 96 % of control | [8] 103 % of control | dose: 200.0 mg/kg/injection, schedule: Q01DX009 (ip), vehicle: saline 102 % of control and 91 % of control

C=CC1CC(NC(=O)c2ccccc2)C(=O)O1 (centres undefined)
inactive: [9] 101 % of control | [10] 104 % of control | [11] 99 % of control

Cc1c(C)c(C)c2c(c1C)C(=O)c1c3c(c4c(c1C2=O)CCCC4)CCCC3
inactive: [12] 108 % of control | [5] 103 % of control | [6] 99 % of control

S=C(NNC(=S)Nc1ccccc1)Nc1ccccc1
inactive: [13] 102 % of control | [14] 97 % of control | [15] 109 % of control | [16] 93 % of control | [7] 100 % of control | [17] 101 % of control | dose: 400.0 mg/kg/injection, schedule: Q01DX009 (ip), vehicle: Klucel (hydroxypropylcellulose) (HPC) 104 % of control

CSc1cccc(NC(=O)Nc2onc(C)c2C)c1
inactive: [14] 91 % of control

CO/C1=C\C(C)=C\C(C)C(O)C(C)C/C(C)=C/C=C/C(OC)C(C(C)C(O)C(C)C2(O)CC(O)C(C)C(C(C)C)O2)OC1=O (centres undefined)
inactive: dose: 1.25 mg/kg/injection, schedule: Q01DX005 (ip), vehicle: other 104 % of control | dose: 2.5 mg/kg/injection, schedule: Q01DX005 (ip), vehicle: other 104 % of control | dose: 5.0 mg/kg/injection, schedule: Q01DX005 (ip), vehicle: other 113 % of control

CCC1=NO[C@@H](C)[C@H]1C(=O)OCc1ccccc1
inactive: [18] 106 % of control | [19] 100 % of control | [20] 97 % of control

CCCCN(CCCC)CC(O)c1c(OC)ccc2ccccc12 (centres undefined)
inactive: dose: 12.5 mg/kg/injection, schedule: Q01DX005 (ip), vehicle: saline 100 % of control | dose: 25.0 mg/kg/injection, schedule: Q01DX005 (ip), vehicle: saline 98 % of control | [9] 119 % of control | dose: 50.0 mg/kg/injection, schedule: Q01DX005 (ip), vehicle: saline 105 % of control

N#CC1CCCCC1C1(C#N)CCCCC1Cc1nccc2ccccc12 (centres undefined)
inactive: dose: 100.0 mg/kg/injection, schedule: Q04DX003 (ip), vehicle: saline with Tween-80 95 % of control | dose: 200.0 mg/kg/injection, schedule: Q04DX003 (ip), vehicle: saline with Tween-80 100 % of control | dose: 400.0 mg/kg/injection, schedule: Q04DX003 (ip), vehicle: saline with Tween-80 86 % of control

CN1CC2(C)CCCC(C)(C1)C2O (centres undefined)
inactive: [9] 106 % of control | [10] 98 % of control

CN(C)C1=C(c2ccccc2)C(=O)C(c2ccccc2)=C1c1ccccc1
inactive: dose: 100.0 mg/kg/injection, schedule: Q04DX003 (ip), vehicle: Klucel (hydroxypropylcellulose) (HPC) 106 % of control | dose: 200.0 mg/kg/injection, schedule: Q04DX003 (ip), vehicle: Klucel (hydroxypropylcellulose) (HPC) 109 % of control | dose: 400.0 mg/kg/injection, schedule: Q04DX003 (ip), vehicle: Klucel (hydroxypropylcellulose) (HPC) 109 % of control

c1ccc2c(c1)Sc1ccccc1N2CC1CN2CCC1CC2 (centres undefined)
inactive: dose: 6.25 mg/kg/injection, schedule: Q01DX009 (ip), vehicle: saline with Tween-80 107 % of control | dose: 12.5 mg/kg/injection, schedule: Q01DX009 (ip), vehicle: saline with Tween-80 98 % of control and 114 % of control | [12] 112 % of control and 123 % of control | [5] 104 % of control

COc1cc2c(=O)n3c4c(cccc4c2cc1OC)CCC3
inactive: dose: 25.0 mg/kg/injection, schedule: Q01DX009 (ip), vehicle: other 94 % of control | dose: 50.0 mg/kg/injection, schedule: Q01DX009 (ip), vehicle: other 90 % of control | dose: 100.0 mg/kg/injection, schedule: Q01DX009 (ip), vehicle: other 87 % of control | dose: 200.0 mg/kg/injection, schedule: Q01DX009 (ip), vehicle: other 92 % of control | dose: 400.0 mg/kg/injection, schedule: Q01DX009 (ip), vehicle: other 100 % of control

COC(=O)C(NC(=O)C(CO)N1C(=O)c2ccccc2C1=O)c1ccccc1 (centres undefined)
inactive: [9] 99 % of control | [10] 98 % of control

Cc1cc(Br)c(OC(=O)Nc2cccc(Cl)c2Cl)cc1C
inactive: dose: 12.5 mg/kg/injection, schedule: Q01DX009 (ip), vehicle: saline 88 % of control | [13] 99 % of control | [5] 88 % of control | [15] 119 % of control | [6] 114 % of control

COc1ccccc1C1=Nc2ccccc2N=C(c2ccccc2O)C1
inactive: [18] 107 % of control | [19] 100 % of control | [20] 90 % of control

CC1(C)NC(=O)NC(=O)C1Br (centres undefined)
inactive: [9] 99 % of control | [10] 102 % of control | [11] 103 % of control

C1=NC(c2ccccc2)C(/C=C/c2ccccc2)N=C1c1ccccc1 (centres undefined)
inactive: dose: 100.0 mg/kg/injection, schedule: Q01DX001 (ip), vehicle: saline 96 % of control | dose: 200.0 mg/kg/injection, schedule: Q01DX001 (ip), vehicle: saline 93 % of control | dose: 400.0 mg/kg/injection, schedule: Q01DX001 (ip), vehicle: saline 86 % of control

O=C1OC(=O)C2C3C=CC(C4C=CC43)C12 (centres undefined)
inactive: dose: 25.0 mg/kg/injection, schedule: Q01DX009 (ip), vehicle: Klucel (hydroxypropylcellulose) (HPC) 106 % of control | [14] 115 % of control | [16] 115 % of control | [17] 97 % of control

O=Cc1cccc2[nH]ccc12
inactive: dose: 50.0 mg/kg/injection, schedule: Q01DX005 (ip), vehicle: Klucel (hydroxypropylcellulose) (HPC) 102 % of control | dose: 100.0 mg/kg/injection, schedule: Q01DX005 (ip), vehicle: Klucel (hydroxypropylcellulose) (HPC) 99 % of control | dose: 200.0 mg/kg/injection, schedule: Q01DX005 (ip), vehicle: Klucel (hydroxypropylcellulose) (HPC) 96 % of control

COc1ccc2c(c1)CC1c3c(cc4c(c3-2)OCO4)CCN1C (centres undefined)
inactive: dose: 30.0 mg/kg/injection, schedule: Q01DX005 (ip), vehicle: Klucel (hydroxypropylcellulose) (HPC) 93 % of control | dose: 60.0 mg/kg/injection, schedule: Q01DX005 (ip), vehicle: Klucel (hydroxypropylcellulose) (HPC) 90 % of control | dose: 120.0 mg/kg/injection, schedule: Q01DX005 (ip), vehicle: Klucel (hydroxypropylcellulose) (HPC) 90 % of control

Nc1ccccc1Nc1ccncc1
inactive: dose: 25.0 mg/kg/injection, schedule: Q01DX009 (ip), vehicle: suspension in saline 97 % of control | dose: 50.0 mg/kg/injection, schedule: Q01DX009 (ip), vehicle: suspension in saline 100 % of control | dose: 100.0 mg/kg/injection, schedule: Q01DX009 (ip), vehicle: suspension in saline 97 % of control

OC1(c2ccccc2)c2ccc(Br)cc2-c2cc(Br)ccc21
inactive: [6] 101 % of control | [8] 104 % of control | dose: 400.0 mg/kg/injection, schedule: Q01DX009 (ip), vehicle: saline with Tween-80 100 % of control

CCc1[nH]c(=O)nc(N)c1-c1ccc(N2CCCCC2)c([N+](=O)[O-])c1
inactive: [18] 93 % of control | [19] 96 % of control | [20] 97 % of control

O=C(Oc1ccccc1)OC1CCN(C(=O)Oc2ccccc2)CC1
inactive: [1] 100 % of control | [2] 102 % of control | [3] 100 % of control | [4] 100 % of control
